Results published in PMC11696576, “Next generation thiazolyl ketone inhibitors of cytosolic phospholipase A2 α for targeted cancer therapy” (Nature Communications, 2025).
Values joined by “and” are separate entries in the source; they are usually repeats but may differ in a detail not shown here. Identical values can stand only once. Like-named read-outs stand apart in the source and are kept apart here.

System: panel of 66 cancer cell lines
Experiment: cancer cell line screen, proliferation assay (ATPlite, 72 h)
Assay type: cell-based, human
Conditions: for raw signal, dose-response (Figure S7a): rep1, rep2, listed as AVX235; for IC50: Homo sapiens
Source text: Targeting specific molecular vulnerabilities in cancer is considered a key approach to reducing the adverse effects of chemotherapy. However, the events that govern the susceptibility to suppression of the cPLA2α in cancer remain largely unexplored. We therefore took the approach of screening the antiproliferative activity of AVX420 in a panel of 66 cancer cell lines (hereafter referred to as the cancer cell line screen or CCLS) to allow us to investigate molecular and genetic vulnerabilities to the drug.
Screening of compound activities in 66 cancer cell lines was carried out at the Netherlands Translation Research Center. Briefly, proliferation assays were performed 72 h after compound addition using ATPlite 1step reagent (Perkin Elmer). IC50s calculated by non-linear regression analysis were used as a measure of compound activity for investigating associations with genetic factors. A complete description of the laboratory and data analysis methods are available in the Supplementary Information file (Supplemental Methods: Cancer Cell Line Screening).
Cancer cell line screening
Cell proliferation assays
All cell lines were from the American Type Culture Collection (ATCC) Manassas, Virginia (US) and maintained under ATCC-recommended protocols and within 9 pas- […]
DMSO at -80°C until one hour before use. Cells exposed within one hour after thaw-ing of the compound stocks. Final compound concentration range in the assay was 10 […]
cated by supplier. Compounds were dissolved in 100 % DMSO and stored at room temperature. Final concentration of the reference compounds in the assay was 3.16x10-5 M to 3.16x10-9 M. The final DMSO concentration during incubation was […]
Cell lines were plated in Advanced RPMI 1640 (Gibco, ref 12633-012) cell culture medium, containing 1% Glutamax solution (Gibco, ref 35050-038), 0.4% Pen Strep solution (Gibco, ref 15140-122) and bovine serum. The cPLA2α inhibitors were tested in 0.5% bovine serum (HyClone, ref SH30072.03) with the exception of769-P, A-204, BT-549, SR, T98G, which were tested in the presence of 1.0% serum and A-704 and LNCaP FGS, which were tested in the in the presence of 10% serum. Reference com-pounds were all tested in the presence of 10% bovine serum.
Cells were dispensed in a 384-well plate, at a concentration of 200 - 3200 cells per well, depending on the cell line, in 45 μL medium. Plated cells were incubated in a humidified atmosphere of 5% CO2 at 37 °C. After 24 hours, 5 μL of compound dilu-tion was added and plates were further incubated for another 72 hours. After 72 hours, 25 μL of ATPlite 1Step™ (PerkinElmer) solution was added to each well, and subse-quently shaken for 2 minutes. After 10 minutes of incubation in the dark, the lumines-cence was recorded on an Envision multimode reader (PerkinElmer).
Cell growth control. The cellular doubling times of all cell lines are calculated from the t = 0 hours and t = 72 hours growth signals of the untreated cells. If the doubling time is out of specification (0.5 – 2.0 times deviating from historic average) the assay […]
IC50s were calculated by non-linear regression using IDBS XLfit 5. The percentage growth after 72h (%-growth) was calculated as follows: 100% x (luminescence t = 72h / luminescence untreated,t=72h). This was fitted to the 10log compound concentration (conc) by a 4-parameter logistics curve: %-growth = bottom + (top – bottom) / (1+ 10(logIC50 – conc)*hill)), where hill is the Hill-coefficient, and bottom and top the asymptotic mini-mum and maximum cell growth that the compound allows in that assay.
All analysis were performed in the statistical software package R and visualized using GraphPad Prism version 10.0 .0

pIC50 (769P, kidney): 4,709
pIC50 (786O, kidney): 4,868
pIC50 (A172, central_nervous_system): 4,701
pIC50 (A204, soft_tissue): 4,858
pIC50 (A375, skin): 4,792
pIC50 (A427, lung): 4,933
pIC50 (A498, kidney): 4,604
pIC50 (A549, lung): 4,718
pIC50 (ACHN, kidney): 4,677
pIC50 (AN3CA, endometrium): 4,738
pIC50 (AU565, breast): 4,915
pIC50 (AsPC1, pancreas): 4,828
pIC50 (BT20, breast): 4,526
pIC50 (BT549, breast): 4,643
pIC50 (BxPC3, pancreas): 4,719
pIC50 (C33A, cervix): 4,835
pIC50 (CAL27, upper_aerodigestive_tract): 4,767
pIC50 (COLO829, unknown): 4,775
pIC50 (Daoy, central_nervous_system): 4,799
pIC50 (DoTc24510, cervix): 4,777
pIC50 (FaDu, upper_aerodigestive_tract): 4,794
pIC50 (HCT15, large_intestine): 4,921
pIC50 (HCT116, large_intestine): 4,798
IC50 (769-P, read-out: IC50): 19.6 µM
IC50 (786-0, 786-O, read-out: IC50): 13.6 µM
IC50 (72 h, panel average, 72 h, read-out: average IC50 in the cancer cell line screen): 16.3 µM
IC50 (A 172, A-172, read-out: IC50): 19.9 µM
IC50 (A204, A-204, read-out: IC50): 13.9 µM
IC50 (A388, cervix, read-out: pIC50 (converted)): 14.5 µM
IC50 (A388, read-out: IC50): 14.5 µM
IC50 (A498, A-498, read-out: IC50): 24.9 µM
IC50 (A549, A-549, read-out: IC50): 19.1 µM
IC50 (A704, A704, kidney, read-out: pIC50 (converted)): 34 µM
IC50 (A704, A-704, read-out: IC50): > 100 µM
IC50 (A-375, A375, read-out: IC50): 16.1 µM
IC50 (A-427, A-427, read-out: IC50): 11.7 µM
IC50 (ACHN, read-out: IC50): 21.1 µM
IC50 (AN3-CA, AN3 CA, read-out: IC50): 18.3 µM
IC50 (ASPC1, AsPC-1, read-out: IC50): 14.8 µM
IC50 (AU565, AU-565, read-out: IC50): 12.2 µM
IC50 (BT-20, BT-20, read-out: IC50): 29.8 µM
IC50 (BT-549, BT-549, read-out: IC50): 22.7 µM
IC50 (BXPC-3, BxPC-3, read-out: IC50): 19.1 µM
IC50 (C-33-A, C-33 A, read-out: IC50): 14.6 µM
IC50 (CAL-27, CAL 27, read-out: IC50): 17.1 µM
IC50 (CCRF-CEM, CCRFCEM, blood, read-out: pIC50 (converted)): 11.7 µM
IC50 (CCRF-CEM, read-out: IC50): 11.7 µM
IC50 (COLO 205, COLO 205, read-out: IC50): 18.5 µM
IC50 (COLO-829, COLO 829, read-out: IC50): 16.8 µM
IC50 (DLD-1, DLD1, large_intestine, read-out: pIC50 (converted)): 13.8 µM
IC50 (DLD-1, DLD-1, read-out: IC50): 13.8 µM
IC50 (DU-145, DU 145, read-out: IC50): 19.3 µM
IC50 (Daoy, read-out: IC50): 15.9 µM
IC50 (DoTc2-4510, DoTc2 4510, read-out: IC50): 16.7 µM
IC50 (FaDu, read-out: IC50): 16.1 µM
IC50 (HCT-15, HCT-15, read-out: IC50): 12 µM
IC50 (HCT-116, HCT 116, read-out: IC50): 15.9 µM
IC50 (Hs-578T, Hs 578T, read-out: IC50): 13.7 µM
IC50 (J82, J82, read-out: IC50): 15.8 µM
IC50 (Jurkat E6.1, Jurkat E6.1, read-out: IC50): 12.5 µM
IC50 (K562, K-562, read-out: IC50): 10.9 µM
IC50 (KU812, KU812, read-out: IC50): 10.4 µM
IC50 (LNCaP, LNCaP FGC, read-out: IC50): > 100 µM
IC50 (LS174T, LS 174T, read-out: IC50): 13 µM
IC50 (LoVo, read-out: IC50): 19.3 µM
IC50 (MCF7, MCF7, read-out: IC50): 12.7 µM
IC50 (MG-63, MG63, bone, read-out: pIC50 (converted)): 20.4 µM
IC50 (MG-63, MG-63, read-out: IC50): 20.4 µM
IC50 (MIA PaCa-2, MIA PaCa-2, read-out: IC50): 10.9 µM
IC50 (MOLT-4, MOLT-4, read-out: IC50): 12 µM
IC50 (MeWo, read-out: IC50): 17.3 µM
IC50 (NCI-H82, NCI-H82, read-out: IC50): 13.7 µM
IC50 (NCI-H460, NCI-H460, read-out: IC50): 22.5 µM
IC50 (OVCAR-3, OVCAR-3, read-out: IC50): 14.3 µM
IC50 (PA-1, PA-1, read-out: IC50): 11.6 µM
IC50 (RKO, read-out: IC50): 8.87 µM
IC50 (RPMI-7951, RPMI-7951, read-out: IC50): 16.2 µM
IC50 (RT-4, RT4, read-out: IC50): 16.5 µM
IC50 (SHP77, SHP-77, read-out: IC50): 11.9 µM
IC50 (SJCRH30, read-out: IC50): 18.4 µM
SMILES: CCCCCCCCc1ccc(OCC(=O)c2nc(C(=O)OC)cs2)cc1 [GK470]
average panel 10logIC50 (10log of IC50 in nM, panel average): 4.20
raw signal, dose-response (Figure S7a) (CCRF-CEM, Log10 M -4): 6827 and 7267
raw signal, dose-response (Figure S7a) (CCRF-CEM, Log10 M -6): 6001427 and 6137653
raw signal, dose-response (Figure S7a) (CCRF-CEM, Log10 M -6.5): 6250880 and 6122947
raw signal, dose-response (Figure S7a) (CCRF-CEM, Log10 M -7): 6208933 and 6388787
raw signal, dose-response (Figure S7a) (CCRF-CEM, Log10 M -7.5): 5662213 and 5677453
raw signal, dose-response (Figure S7a) (CCRF-CEM, Log10 M -8): 5954640 and 6349707
